Where two headings read alike, the source gives them in different places.
Experiments:
[1] = tested on: ARPE-19 cell lines; settings: for % Survival: untreated cells = 100; for cell survival: text summary of Table 1, AtR 25 μM
Protocol: The biological assay is based on the measure of cell survival after treatment with the lipophenol prior incubation (pre-incubation process) with the carbonyl stressor AtR. The toxic AtR concentration (25 μM) was determined to reduce cell survival by 60 to 70%. Results are expressed as % of cell survival in treated (lipophenol/all-trans-retinal) vs untreated cells (taken as 100%).
ARPE-19 cells were settled in 96-well plates (3×10^4 cells/well) and cultured 24 h to reach confluence before drug treatment. Cell cultures received a serum-free medium containing drugs at different concentrations (10-40 μM) for one hour and trans-retinal (25 μM) was added for 4 more hours before rinsing with medium. The viability of cells in triplicate samples was determined 16-20 h after with a MTT colorimetric assay. After 2 h incubation with 0.5 mg/ml MU, insoluble purple formazan produced was dissolved in DMSO. The absorbance at 570 nm and 655 nm of individual wells was measured by a microplate reader (BioRad 550).

[2] = tested on: ARPE-19 cell lines; test: ARPE-19 cell survival, co-treatment with atRAL 25 μM; type: cell-based
Protocol: Co-treatment were performed with lipophenols onto ARPE-19 (FIG. 4). Incubation for 4 h with atRAL decreased cell viability to 35%. The protection of ARPE-19 by phloroglucinol (PG) was dose-dependent but weak (less than 10%). In contrast, most of the PG derivatives were more protective, in particular the presence of two or three DHA linked to PG provided a strong protection (up to 73% survival), as well as the mono-alkylation (methyl and isopropyl) were sufficient to protect 60% of cells. PG-OiP-DHA was confirmed to be among the most efficient (74%).

[3] = tested on: neural retina cell cultures; test: Cytoprotection in neural retina cell cultures exposed to atRal (MTT); type: cell-based; settings: 13b 10 to 100 μM, atRal 50-75-100 μM added 1 h after, 4 h co-incubation
Protocol: The effect of compound 13b on cell viability was examined after co-incubation with atRal. Cell cultures were incubated with 13b (10 to 100 μM) and atRal (50-75-100 μM) was added 1 h after for a 4 h co-incubation. Cells were then cultured in serum-free medium for 16-20 h and their viability was determined with a MTT assay.

[4] = tested on: complexes CI and CII; test: Mitochondrial respiration in ARPE-19 cell line (oxygraph); type: cell-based
Excerpt: Oxidative stress originates from physiological reactions taking place practically inside each cell of an organism. The production of reactive oxygen species (ROS) accompanies, for example, oxidative phosphorylation-derived ATP-based energy metabolism which takes place in the mitochondria of a cell. Under physiological conditions, ROS are neutralized by effective enzymatic and non-enzymatic defense mechanisms, contributing to the maintenance of a proper balance. However, an excess of ROS, resulting from their overproduction in pathophysiological conditions, will disturb the equilibrium and lead eventually to deleterious consequences for the cell. Maeda et al. (JBC 284(22), 2009) have reported that atRal impairs mitochondrial oxidative phosphorylation. Therefore, mitochondrial respiration was measured in ARPE-19 cell line using oxygraph after exposure to 25 μM atRal and/or 40 μM 13b (FIG. 3).

[5] = tested on: mitochondrial respiratory chain (MRC) complex; test: Mitochondrial respiratory chain complex enzymatic activities and protein expression; type: cell-based; settings: atRAL treatment with PG-OiP-DHA (FIG. 5, FIG. 14)
Excerpt: In a cellular context, PG-OiP-DHA (compound 13b) has been shown able to partially restore mitochondrial oxidative respiration impaired by the atRAL (example 10). Because this repair might be produced by targeting the whole oxidative chain or each individual respiratory complex, this potency was further investigated by measuring the intrinsic activity of each mitochondrial respiratory chain (MRC) complex (enzymology) and their level of protein expression (FIG. 5). […] This was supported by the loss of MRC protein expression.
Several experiments were made to validate the efficacy of PG-OiP-DHA in the protection of the mitochondrial activity (FIG. 14).

[6] = tested on: ARPE-19; test: atRAL-induced cell death, Annexin V-FITC / propidium iodide flow cytometry; type: cell-based; settings: 4 h
Protocol: Further investigations were made to define the atRAL-induced cell death (apoptotic versus necrotic) and validate the protective effect of PG-OiP-DHA (FIG. 6). Cells were incubated for 4 h with atRAL 25 μM, PG-OiP-DHA (compound 13b) 40 μM, or both. Treated ARPE-19 were labeled with Annexin V-FITC (A) and propidium iodide (PI) to separate by flow cytometry healthy cells (no labeling), early apoptosis (A+ and PI−) and necrotic cells (A+ and PI+). In CTL or PG-OiP-DHA-treated cells only 6 to 10% died. After 4 h atRAL, cell death reached 46%, mainly at necrotic stage (41%).

[7] = tested on: RPE primary cells; test: Primary RPE cultures, pre-treatment 24 h, H2O2 450 μM 2 h, cell viability assay; type: cell-based; settings: H2O2 450 μM 2 h (FIG. 7)
Protocol: a. Pre-treatment 24 h, H2O2 450 μM 2 h; cell viability assay

[8] = tested on: RPE primary cells; test: Primary RPE cultures, pre-treatment 24 h, atRAL 25 μM 4 h, cell viability assay; type: cell-based; settings: atRAL 25 μM 4 h (FIG. 8)
Protocol: b. Pre-treatment 24 h, atRAL 25 μM 4 h; cell viability assay

[9] = tested on: RPE primary cells; test: Primary RPE cultures, co-incubation 4 h with atRAL 25 μM, cell viability assay; type: cell-based; settings: co-incubation 4 h with atRAL 25 μM (FIG. 9)
Protocol: c. Co-incubation 4 h with atRAL 25 μM; cell viability assay
To compare the anti-carbonyl efficacies of phloroglucinol (22% gain of survival) and PG-OiP-DHA (69%) in a condition to probe their scavenging properties in primary RPE cells (FIG. 9).

[10] = compound 10 μM 1 h, then AtR 25 μM 4 h, MTT after 16-20 h
[11] = compound 40 μM 1 h, then AtR 25 μM 4 h, MTT after 16-20 h
[12] = co-incubation atRAL 25 μM + PG-OiP-DHA 40 μM

Structure (SMILES): CC(C)Oc1cc(O)cc(O)c1 [Compound 9b, 5-isopropoxybenzene-1,3-diol, reference compound]
- % Survival [1, 10]: 30.6 ± 1.2%
- % Survival [1, 11]: 32.7 ± 1.8%

Structure (SMILES): CC/C=C\C/C=C\C/C=C\C/C=C\C/C=C\C/C=C\CCC(=O)Oc1ccc(/C=C/c2cc(O)cc(O)c2)cc1 [Compound 20, (4,7,10,13,16,19 Z)-4-((E)-3,5-dihydroxyphenylstyryl)phenyl docosa-4,7,10,13,16,19-hexaenoate]
- protective effect ([2]; co-treatment with atRAL 25 μM 4 h (FIG. 4)): very potent

Structure (SMILES): CC/C=C\C/C=C\C/C=C\C/C=C\C/C=C\C/C=C\CCC(=O)Oc1cc(OC(=O)CC/C=C\C/C=C\C/C=C\C/C=C\C/C=C\C/C=C\CC)cc(OC(=O)CC/C=C\C/C=C\C/C=C\C/C=C\C/C=C\C/C=C\CC)c1 [Compound 8, (4,4′,4″,7,7′,7″,10,10′,10″,13,13′,13″,16,16′,16″,19,19′,19″Z)-benzene-1,3,5-triyl tridocosa-4,7,10,13,16,19-hexaenoate]
- % Survival [1, 10]: 33.3 ± 4.1%
- % Survival [1, 11]: 47.7 ± 3.2%
- cell survival [1]: 50%

Structure (SMILES): CC/C=C\C/C=C\C/C=C\C/C=C\C/C=C\C/C=C\CCC(=O)Oc1cc(O)cc(OC(C)C)c1 [Compound 13b, (4,7,10,13,16,19 Z)-3-hydroxy-5-isopropoxyphenyl docosa-4,7,10,13,16,19-hexaenoate]
- reversal of atRal cytotoxicity [3]: robustly reversed
- reversal of atRal inhibition of complexes CI and CII ([4]; 40 μM 13b with 25 μM atRal): partially reverse this inhibition
- inhibition of the activity of each complex by the compound alone ([4]; 40 μM 13b, no atRal): no significant inhibition
- survival ([2]; co-treatment with atRAL 25 μM 4 h, doses 5-80 μM (FIG. 4)): 74%
- preservation of complex II and IV enzymatic activities affected by atRAL [5]: significantly preserved
- necrotic cells [6, 12]: 16%
- total cell death [6, 12]: 18%
- gain of survival (anti-oxidant efficacy) [7]: 20%
- gain of survival (anti-carbonyl efficacy) [8]: 42%
- gain of survival (anti-carbonyl efficacy, scavenging) [9]: 69%
- % Survival [1, 10]: 43.2 ± 7.5%
- % Survival [1, 11]: 66.8 ± 8.6%

Structure (SMILES): Oc1cc(O)cc(O)c1 [Phloroglucinol, phloroglucinol, reference compound]
- protection of ARPE-19 ([2]; co-treatment with atRAL 25 μM, doses 5-80 μM): less than 10%
- gain of survival (anti-oxidant efficacy) [7]: 10%
- gain of survival (anti-carbonyl efficacy) [8]: 18%
- gain of survival (anti-carbonyl efficacy, scavenging) [9]: 22%
- increase of RPE cell survival ([1]; 40 μM, AtR 25 μM): 10%
- % Survival [1, 10]: 35.5 ± 3.3%
- % Survival [1, 11]: 41.6 ± 9.2%

Structure (SMILES): CC1=C(/C=C/C(C)=C/C=C/C(C)=C/C=O)C(C)(C)CCC1 [AtR, all-trans-retinal, reference compound]
- inhibition of the activity of complexes CI and CII ([4]; 25 μM atRal alone): strongly inhibits
- cell viability ([2]; atRAL 25 μM alone, 4 h): 35%
- cell death ([6]; atRAL 25 μM alone): 46%
- necrotic stage cells ([6]; atRAL 25 μM alone): 41%
- % Survival ([1]; AtR 25 μM alone): 29.1 ± 5.4%

Structure (SMILES): CC/C=C\C/C=C\C/C=C\C/C=C\C/C=C\C/C=C\CCC(=O)Oc1cc(O)cc(OC)c1 [Compound 13a, (4,7,10,13,16,19 Z)-3-hydroxy-5-methoxyphenyl docosa-4,7,10,13,16, 19-hexaenoate]
- % Survival [1, 10]: 32.6 ± 3.7%
- % Survival [1, 11]: 44.9 ± 1.9%
- cell survival [1]: as active as 8

Structure (SMILES): CC/C=C\C/C=C\C/C=C\C/C=C\C/C=C\C/C=C\CCC(=O)O [DHA, docosahexaenoic acid, reference compound]
- % Survival [1, 10]: 23.5 ± 2.7%
- % Survival [1, 11]: 7.3 ± 5.0%

— US11014947B2, “Lipophenol compounds and uses thereof” (INSTITUT NATIONAL DE LA SANTE ET DE LA RECHERCHE MEDICALE …, priority 2014, dated 2021)
